Data: PMC2964311, “The Human Host Defense Peptide LL-37 Interacts with Neisseria meningitidis Capsular Polysaccharides and Inhibits Inflammatory Mediators Release” (PLoS ONE, 2010)
≈ marks a conversion by molar mass, not a printed value.

Tests used:
[1] = system: N. gonorrhoeae strain FA 19; settings: N. gonorrhoeae FA19 (non-encapsulated); assays in triplicate
Protocol: The peptides were dissolved in 0.01 % (v/v) acetic acid and stored at −20°C prior to use. Antibacterial assays were performed as described previously and used N. gonorrhoeae strain FA 19. All assays were performed in triplicate and values are reported as the minimal inhibitory concentration (MIC).

THP-1 cells [2] = test: TNFα release from THP-1 cells induced with meningococcal CPS pre-incubated with peptide (ELISA); type: cell-based, human; settings: THP-1 cells induced overnight with serogroup B CPS-lpxA pre-incubated with 2 µg/ml peptide, 30 min, 37°C; Figure 1A
Protocol: (§1) Human THP-1 (macrophage-like cells) and murine RAW 264.7 (TLR4-sufficient), 23ScCr (TLR4-deficient) and HEK-TLR2/6/CD14 stably transfected cell lines were stimulated with meningococcal CPS polymers with or without pre-incubation with LL-37 and its analogs (Table 1). CPS polymers were purified from the LPS-deficient serogroup B Neisseria meningitidis lpxA mutant as well as other meningococcal serogroups A, B, C, W135 and Y. Purified CPS samples were freshly dissolved in pyrogen-free sterile H2O at 1 mg/ml stock concentration and vortexed for 2 min. Working CPS concentrations (ranging from 100 µg/ml to 50 ng/ml) were made in duplicate wells using sterile PBS by serial fold dilutions in the 96-well tissue culture plates (Becton Dickinson, Franklin Lakes, NJ) at 50 µl final volumes. […] Freshly grown THP-1 cells and HEK-TLR2/6 transfected cells as well as murine macrophages, each adjusted to 10^6 cell/ml and 250 µl aliquots were dispensed into each well at final 250×10^3 cell density in the designated 96-well plates. The plates were incubated overnight at 37°C with 5% CO2 and humidity. Supernatants from stimulated cells were harvested and stored at −20°C until use.
(§2) The cytokines TNFα, IL-6 and CXCL10 (IP-10), released from THP-1 cells, and IL-8, released from HEK-TLR2 transfected cells stimulated with meningococcal CPS polymers, were quantified by DuoSet ELISA (R&D Systems) as previously described.

THP-1 cells [3] = test: IL-6 release from THP-1 cells induced with meningococcal CPS pre-incubated with peptide (ELISA); type: cell-based, human; settings: THP-1 cells induced overnight with CPS-lpxA pre-incubated with 2 µg/ml peptide, 30 min, 37°C; Figure 1B
Protocol: as §1, with “Supernatants from stimulated cells were harvested and stored at −20°C until use.” left out
as §2

[4] = system: HEK-TLR2/6 stably transfected cells; test: IL-8 release from HEK-TLR2/6 stably transfected cells induced with meningococcal CPS pre-incubated with peptide (ELISA); type: cell-based, human
Protocol: (§3) Human THP-1 (macrophage-like cells) and murine RAW 264.7 (TLR4-sufficient), 23ScCr (TLR4-deficient) and HEK-TLR2/6/CD14 stably transfected cell lines were stimulated with meningococcal CPS polymers with or without pre-incubation with LL-37 and its analogs (Table 1). CPS polymers were purified from the LPS-deficient serogroup B Neisseria meningitidis lpxA mutant as well as other meningococcal serogroups A, B, C, W135 and Y. Purified CPS samples were freshly dissolved in pyrogen-free sterile H2O at 1 mg/ml stock concentration and vortexed for 2 min. Working CPS concentrations (ranging from 100 µg/ml to 50 ng/ml) were made in duplicate wells using sterile PBS by serial fold dilutions in the 96-well tissue culture plates (Becton Dickinson, Franklin Lakes, NJ) at 50 µl final volumes. Cationic peptides (2, 4 or 8 µg/ml) or PBS equivalent volumes were added to designated wells and pre-incubated for 30 min at 37°C. Freshly grown THP-1 cells and HEK-TLR2/6 transfected cells as well as murine macrophages, each adjusted to 10^6 cell/ml and 250 µl aliquots were dispensed into each well at final 250×10^3 cell density in the designated 96-well plates. The plates were incubated overnight at 37°C with 5% CO2 and humidity. Supernatants from stimulated cells were harvested and stored at −20°C until use.
as §2

RAW 264.7 macrophages = test: Nitric oxide release from RAW 264.7 macrophages induced with meningococcal CPS (Griess method); type: cell-based, murine
Protocol: as §3
Freshly grown adherent RAW 246.7 or 23ScCr (TLR4-deficient) macrophages were harvested, washed and re-suspended in Dulbecco's complete media, counted and adjusted to 10^6 cell/ml. 250 µl aliquots were then dispensed into each well of a 96-well plate at final 250×10^3 cell density prior to stimulation with purified CPS polymers with or without cationic peptides. The induced RAW 264.7 or 23ScCr macrophages were incubated overnight at 37°C with 5% CO2 and supernatants were harvested and saved. Nitric oxide release was quantified using the Greiss chemical method as previously described.

[5] = system: meningococcal CPS-lpxA polymers; test: Electrophoretic mobility shift assay (EMSA) of CPS complex with LL-37, CD14 and LBP; type: binding, Neisseria meningitidis; settings: 5 µg LL-37, 0.5 µg rCD14, 0.5 µg rLBP, 3 h 37°C; 8% native PAGE, Western blot; Figure 8 lane 5
Protocol: To assess binding of CPS to LL-37 in the presence of human CD14 and LBP, an EMSA assay using native gel conditions was performed. Serogroup B CPS purified from a LOS-deficient meningococcal lpxA strain were dissolved in sterile H2O at 1 mg/ml concentration and 20 µl were transferred into an Eppendorf tube mixed with 10 µl (5 µg) of LL-37, 10 µl (0.5 µg) of human rCD14 and 10 µl (0.5 µg) of rLBP (R&D Systems) in […] and incubated for 3 h at 37°C. An aliquot of 7.5 µl of the mixed complexes were transferred into a new Eppendorf tube and mixed with an equal volume of sample buffer (0.1 M Tris-glycine buffer containing 20% glycerol and bromophenol blue) and 15 µl of the mixture were loaded on 8% native polyacrylamide gel electrophoresis (PAGE) without SDS as previously described. Electrophoresis was performed with Tris-glycine buffer pH 8.8 without SDS and run for 2 h at 4°C. The gel-shifting of CPS complexes was detected by Western blot method using biotinylated anti CD14 and anti LBP antibodies (R&D Systems) diluted 1∶1500× with blocking buffer.

TLR2 = test: Neutralization of the TLR2-mediated response induced by phospholipid extract PL-lpxA; type: cell-based; settings: phospholipid extraction from LOS-deficient meningococci
[6] = system: TLR4-sufficient and TLR4-deficient murine macrophages; test: CXCL10 (IP-10) release from murine macrophages induced with meningococcal CPS; type: cell-based
Protocol: as §3, with “The plates were incubated overnight at 37°C with 5% CO2 and humidity. Supernatants from stimulated cells were harvested and stored at −20°C until use.” left out
as §2

For `CC[C@H](C)[C@H](NC(=O)[C@H](CCCCN)NC(=O)[C@H](CCC(=O)O)NC(=O)[C@H](CCCCN)NC(=O)[C@H](CO)NC(=O)[C@H](CCCCN)NC(=O)[C@H](CCCNC(=N)N)NC(=O)[C@H](Cc1ccccc1)NC(=O)[C@H](Cc1ccccc1)NC(=O)[C@H](CC(=O)O)NC(=O)CNC(=O)[C@H](CC(C)C)NC(=O)[C@@H](N)CC(C)C)C(=O)NCC(=O)N[C@@H](CCCCN)C(=O)N[C@@H](CCC(=O)O)C(=O)N[C@@H](Cc1ccccc1)C(=O)N[C@@H](CCCCN)C(=O)N[C@@H](CCCNC(=N)N)C(=O)N[C@H](C(=O)N[C@H](C(=O)N[C@@H](CCC(N)=O)C(=O)N[C@@H](CCCNC(=N)N)C(=O)N[C@H](C(=O)N[C@@H](CCCCN)C(=O)N[C@@H](CC(=O)O)C(=O)N[C@@H](Cc1ccccc1)C(=O)N[C@@H](CC(C)C)C(=O)N[C@@H](CCCNC(=N)N)C(=O)N[C@@H](CC(N)=O)C(=O)N[C@@H](CC(C)C)C(=O)N[C@H](C(=O)N1CCC[C@H]1C(=O)N[C@@H](CCCNC(=N)N)C(=O)N[C@H](C(=O)N[C@@H](CCC(=O)O)C(=O)N[C@@H](CO)C(=O)O)[C@@H](C)O)C(C)C)[C@@H](C)CC)C(C)C)[C@@H](C)CC` [LL-37], the MIC [1] was 7.8 µg/mL (≈ 1.74 µM), the TNFα release (THP-1 cells [2]) was “inhibited” and the IL-6 release (THP-1 cells [3]) was “inhibited”. The IL-8 release ([4]; HEK-TLR2/6 cells induced with CPS-lpxA pre-incubated with 2 µg/ml peptide, Figure 1C) was “inhibited”, the “Neutralization of CPS-induced IL-8 release” value ([4]; HEK-TLR2/6 cells, serogroup A CPS pre-incubated with 4 µg/ml peptide, Figure 2A) was “neutralized” and the IL-8 release ([4]; HEK/TLR2/6 cells stimulated with different meningococcal CPS structures pre-incubated with LL-37) was “significant reduction in IL-8 release”. For the same compound, the “IL-8 release induced by MAPS” value ([4]; HEK/TLR2/6 cells, vaccine grade serogroup A CPS (MAPS) pre-incubated with 2 µg/ml of LL-37, Figure 2B) was “significantly reduced”, the “Nitric oxide release by CPS-lpxA complexes used in gel-shift” value (RAW 264.7 macrophages; RAW 264 macrophages, complexes with CD14, LBP and LL-37, data not shown) was “significant reduction in nitric oxide release” and the “Cytokine release after pre-treatment of macrophages” value (RAW 264.7 macrophages; RAW 264 pre-treated with 10 µg/ml LL-37 for 30 min, washed, then CPS-lpxA 50 µg/ml, nitric oxide read-out, Figure S2) was “did not affect cytokine release”. The Nitric oxide release (RAW 264.7 macrophages; RAW 264.7 induced with CPS-lpxA pre-incubated with 2 µg/ml peptide, nitrite after 24 h, Figure 1D) was “inhibited”, the “Gel-shift of CPS-lpxA-CD14-LBP complexes” value [5] was “caused a gel-shift” and the “Neutralization of biologic activity of PL-lpxA” value (TLR2) was “failed to neutralize”. The “CXCL10 (IP-10) release” value [6] was “inhibited”.
